Laboratory results taken from ChEMBL document CHEMBL5154637, “Peptidomimetic α-Acyloxymethylketone Warheads with Six-Membered Lactam P1 Glutamine Mimic: SARS-CoV-2 3CL Protease Inhibition, Coronavirus Antiviral Activity, and in Vitro Biological Stability” (J Med Chem, 2022).

What was measured:
[1] = biological target: Replicase polyprotein 1ab (Severe acute respiratory syndrome coronavirus 2, UniProt P0DTD1); assay: Inhibition of SARS-CoV-2 3CL protease incubated for 30 mins by FRET assay
[2] = Dissociation constant, pKa of the compound; format: physicochemical
[3] = test system: SARS-CoV-2; assay: microbe, parasite or virus in culture; conditions: Severe acute respiratory syndrome coronavirus 2, Vero C1008, 48 h
[4] = Antiviral activity against Human coronavirus OC43 infected in human Huh-7 cells assessed as reduction in virus-induced cytopathic effect incubated for 7 days by Celltiter-Glo assay; format: functional, cell-based; conditions: Betacoronavirus 1, OC43, Huh-7, 168 h
[5] = Cytotoxicity against human MRC5 cells assessed as reduction in cell viability incubated for 24 hrs by Celltiter-glo luminescent cell viability assay; format: toxicity, cell-based
[6] = Cytotoxicity against human Huh-7 cells assessed as reduction in cell viability incubated for 24 hrs by Celltiter-glo luminescent cell viability assay; format: toxicity, cell-based
[7] = test system: Human coronavirus 229E; assay: Antiviral activity against Human coronavirus 229E infected in human MRC5 cells assessed as reduction in virus-induced cytopathic effect incubated for 3 days by Celltiter-Glo assay; format: functional, organism-based; conditions: MRC5, 72 h
[8] = Stability in CD-1 mouse plasma assessed as half life at 2 uM measured upto 120 mins by LC-MS/MS analysis; format: ADME, cell-free
[9] = Microsomal stability in CD-1 mouse liver microsomes assessed as half life at 1 uM measured upto 60 mins in presence of NADPH by LC-MS/MS analysis; format: ADME, Microsome; conditions: for Stability: mouse, microsomes, 1 h, 1 µM; for half-life at 1 µM: CD-1, mouse, liver microsomes
[10] = Metabolic stability in CD-1 mouse Hepatocytes assessed as half life at 3 uM measured upto 90 mins by LC-MS/MS analysis; format: ADME, cell-based, Hepatocyte; conditions: for half-life at 3 µM: CD-1, mouse
[11] = Lipophilicity, log D of the compound at phosphate buffer pH 7.4 by shake flask method based LC-MS/MS analysis; format: physicochemical
[12] = Metabolic stability in CD-1 mouse liver microsomes assessed as half life at 1 uM measured upto 60 mins in absence of NADPH by LC-MS/MS analysis; format: ADME, Microsome
[13] = Apparent permeability from basolateral to apical side in human Caco-2 cells at 2 uM with pH 7.4 incubated for 2 hrs by LC-MS analysis; format: ADME, cell-based; conditions: for permeability: caco-2, pH 7.4, 2 h, 2 µM; for Papp B→A at 2 h, 2 µM: Caco-2, pH 7.4
[14] = in vitro; conditions: chlorocebus sabaeus, Vero E6 cells
[15] = in vitro; conditions: human, A549 cells
[16] = Metabolic stability in human plasma measured at 2 hrs by LC-MS analysis; format: ADME, cell-free; conditions: read-out: Stability
[17] = Metabolic stability in human plasma assessed as half life measured upto 2 hrs by LC-MS analysis; format: ADME, cell-free
[18] = Selectivity index, ratio of CC50 for cytotoxicity against African green monkey VeroE6 cells assessed as reduction in cell viability to EC50 for antiviral activity against SARS-CoV-2 3CL protease; format: toxicity, cell-based
[19] = biological target: T1, Cathepsin S (Homo sapiens, UniProt P25774); assay: Inhibition of human cathepsin S incubated for 30 mins by fluorometric analysis
Target sequence in this assay (P25774 whole entry): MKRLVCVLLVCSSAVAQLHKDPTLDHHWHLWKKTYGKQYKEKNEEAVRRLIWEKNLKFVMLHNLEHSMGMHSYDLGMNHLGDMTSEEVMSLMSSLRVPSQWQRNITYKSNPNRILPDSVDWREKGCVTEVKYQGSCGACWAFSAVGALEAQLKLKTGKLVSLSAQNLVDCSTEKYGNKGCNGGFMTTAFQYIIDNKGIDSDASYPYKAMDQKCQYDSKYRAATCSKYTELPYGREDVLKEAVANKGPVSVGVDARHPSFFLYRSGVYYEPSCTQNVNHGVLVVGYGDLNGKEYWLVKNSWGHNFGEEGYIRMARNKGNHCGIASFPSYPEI

[20] = Selectivity index, ratio of CC50 for cytotoxicity against human A549 cells assessed as reduction in cell viability to EC50 for antiviral activity against SARS-CoV-2 3CL protease; format: toxicity, cell-based; conditions: read-out: Ratio CC50/EC50
[21] = biological target: T2, Cathepsin B (Homo sapiens, UniProt P07858); assay: Inhibition of human cathepsin B at 1 uM incubated for 30 mins by fluorometric analysis
[22] = biological target: T1, Cathepsin S; assay: Inhibition of human cathepsin S at 1 uM incubated for 30 mins by fluorometric analysis
Target sequence in this assay (P25774 115-331 limits assumed): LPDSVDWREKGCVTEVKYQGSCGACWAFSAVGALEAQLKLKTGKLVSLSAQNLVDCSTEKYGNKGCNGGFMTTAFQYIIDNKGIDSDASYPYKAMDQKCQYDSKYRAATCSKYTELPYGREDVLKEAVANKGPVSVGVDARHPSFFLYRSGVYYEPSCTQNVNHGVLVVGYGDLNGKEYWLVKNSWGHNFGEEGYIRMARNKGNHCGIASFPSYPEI

[23] = biological target: T2, Cathepsin B; assay: Inhibition of human cathepsin B incubated for 30 mins by fluorometric analysis
[24] = Efflux ratio of apparent permeability across basal to apical membrane over apical to basal membrane in human Caco-2 cells at 2 uM with pH 7.4 incubated for 2 hrs by LC-MS analysis; format: ADME, cell-based; conditions: caco-2, pH 7.4, 2 h
[25] = Stability of compound in glutathione at pH 7.4 after 24 hrs by LC-MS analysis; format: physicochemical; conditions: read-out: Stability
[26] = in vitro; conditions: human, Huh-7 cells

Row | Structure (SMILES) | IC50 [1] [nM] | pKa [2] | EC50 [3] [nM] | EC50 [4] [nM] | CC50 at 24 h [5] [nM] | CC50 at 24 h [6] [nM] | EC50 [7] [nM] | CC50 at 24 h [14] [nM] | CC50 at 24 h [15] [nM] | remaining at 2 h [16] [%] | inhibition [21] [%] | inhibition [22] [%] | further results
1 | COc1cccc2[nH]c(C(=O)N[C@@H](CC(C)C)C(=O)N[C@@H](C[C@@H]3CCCNC3=O)C(=O)COC(=O)c3c(C)nn(C)c3C)cc12 | 71.5 | 2.2 | > 10000 | – | – | – | – | – | – | – | – | – | –
2 | COc1cccc2[nH]c(C(=O)N[C@@H](CC(C)C)C(=O)N[C@@H](C[C@@H]3CCCNC3=O)C(=O)COC(=O)c3c(Cl)cccc3Cl)cc12 | – | 1.26 | – | 35 | > 100000 | > 100000 | 21 | > 200000 | > 200000 | – | – | – | half-life at 2 µM [8]: 170 min; Stability [9]: Unstable; half-life at 3 µM [10]: 2.3 min; logD [11]: > 5.07; half-life at 1 µM ([12]; CD-1, mouse, liver microsomes): < 180 min; permeability [13]: Impermeable
3 | COc1cccc2[nH]c(C(=O)N[C@@H](CC(C)C)C(=O)N[C@@H](C[C@@H]3CCCNC3=O)C(=O)COC(=O)C(C)(C)C)cc12 | – | 5.03 | > 10000 | – | – | – | – | – | – | 100 | – | – | –
4 | COc1cccc2[nH]c(C(=O)N[C@@H](CC(C)C)C(=O)N[C@@H](C[C@@H]3CCCNC3=O)C(=O)COC(=O)C(C)(C)C#N)cc12 | – | 2.4 | > 10000 | – | – | – | – | – | – | 0 | – | – | half-life [17]: < 15 min
5 | COc1cccc2[nH]c(C(=O)N[C@@H](CC(C)C)C(=O)N[C@@H](C[C@@H]3CCCNC3=O)C(=O)COC(=O)c3c(C)nc(C)nc3C)cc12 | – | 2 | – | – | – | – | – | > 200000 | > 200000 | – | – | – | –
6 | COc1cccc2[nH]c(C(=O)N[C@@H](CC(C)C)C(=O)N[C@@H](C[C@@H]3CCCNC3=O)C(=O)COC(=O)C3(C)OCCCO3)cc12 | 12.5 | 2.7 | > 10000 | – | – | – | – | – | – | – | – | – | –
7 | COc1cccc2[nH]c(C(=O)N[C@@H](CC(C)C)C(=O)N[C@@H](C[C@@H]3CCCNC3=O)C(=O)COC(=O)C3(C(F)(F)F)CCCCC3)cc12 | – | 3.4 | 600 | 395 | > 100000 | > 100000 | 196 | > 200000 | > 200000 | 97 | 38.6 | 84.2 | selectivity ratio ([18]; read-out: Ratio CC50/EC50): > 333; IC50 [19]: 444 nM; selectivity ratio [20]: > 333; IC50 [23]: 2850 nM
8 | O=C[C@H](C[C@@H]1CCNC1=O)NC(=O)[C@H](CC1CCCCC1)NC(=O)OCc1cccc(Cl)c1 | – | – | – | – | – | – | – | – | – | – | 72.5 | 99.3 | –
9 | COc1cccc2[nH]c(C(=O)N[C@@H](CC(C)C)C(=O)N[C@@H](C[C@@H]3CCCNC3=O)C(=O)COC(=O)c3ccncc3)cc12 | 32.9 | 1.77 | > 10000 | – | – | – | – | – | – | – | – | – | –
10 | COc1cccc2[nH]c(C(=O)N[C@@H](CC(C)C)C(=O)N[C@@H](C[C@@H]3CCCNC3=O)C(=O)COC(=O)c3ccccc3)cc12 | – | 4.2 | > 10000 | – | – | – | – | – | – | 67 | 16.2 | 41 | half-life [17]: 209 min
11 | CC(=O)OCC(=O)[C@H](C[C@@H]1CCNC1=O)NC(=O)[C@H](CC(C)C)NC(=O)OCc1cccc(Cl)c1 | 1500 | – | 21500 | – | – | – | – | > 200000 | > 200000 | – | – | – | –
12 | COc1cccc2[nH]c(C(=O)N[C@@H](CC(C)C)C(=O)N[C@@H](C[C@@H]3CCCNC3=O)C(=O)CO)cc12 | 19.5 | – | 10100 | – | – | – | – | > 200000 | > 200000 | – | 26.5 | 60.8 | –
13 | COc1cccc2[nH]c(C(=O)N[C@@H](CC(C)C)C(=O)N[C@@H](C[C@@H]3CCCNC3=O)C(=O)COC(=O)c3ccccn3)cc12 | 126 | 0.99 | > 10000 | – | – | – | – | – | – | – | – | – | –
14 | COc1cccc2[nH]c(C(=O)N[C@@H](CC(C)C)C(=O)N[C@@H](C[C@@H]3CCCNC3=O)C(=O)COC(=O)C(C)(C)C(F)(F)F)cc12 | – | 3.2 | > 5000 | 195 | > 100000 | 94600 | 112 | > 200000 | > 200000 | 25 | – | – | half-life at 2 µM [8]: 11.6 min; Stability [9]: Unstable; Stability ([10]; mouse, 1.5 h, 3 µM): Unstable; logD [11]: 4.89; half-life [17]: 67 min; Stability ([12]; mouse, microsomes, 1 h, 1 µM): Unstable; permeability [13]: Impermeable
15 | COc1cccc2[nH]c(C(=O)N[C@@H](CC(C)C)C(=O)N[C@@H](C[C@@H]3CCCNC3=O)C(=O)COC(=O)c3c(C(F)(F)F)cc(C)nc3C)cc12 | – | 1.7 | 470 | 45 | > 100000 | 67600 | 30 | > 200000 | > 200000 | 99 | 95 | 98.4 | selectivity ratio ([18]; read-out: Ratio): > 426; selectivity ratio [20]: > 426; half-life at 2 µM [8]: > 289 min; half-life at 1 µM [9]: 1 min; half-life at 3 µM [10]: 1.9 min; Ratio [24]: 1146; logD [11]: 4.11; remaining at 24 h [25]: > 80%; Papp B→A at 2 h, 2 µM [13]: 28.9 ×10⁻⁶ cm/s
16 | COc1cccc2[nH]c(C(=O)N[C@@H](CC(C)C)C(=O)N[C@@H](C[C@@H]3CCCNC3=O)C(=O)COC(=O)c3cccnc3)cc12 | – | 2 | > 10000 | – | – | – | – | – | – | 2 | – | – | half-life [17]: < 15 min
17 | COc1cccc2[nH]c(C(=O)N[C@@H](CC(C)C)C(=O)N[C@@H](C[C@@H]3CCCNC3=O)C(=O)COC(=O)c3c(C(F)(F)F)cccc3C(F)(F)F)cc12 | – | 1.9 | 160 | 47 | > 100000 | 94600 | 29 | > 200000 | > 200000 | 100 | 91.3 | 96.8 | selectivity ratio ([18]; read-out: Ratio CC50/EC50): > 1250; IC50 [19]: 116 nM; selectivity ratio [20]: > 1250; IC50 [23]: 464 nM
18 | COc1cccc2[nH]c(C(=O)N[C@@H](CC(C)C)C(=O)N[C@@H](C[C@@H]3CCCNC3=O)C(=O)COC(=O)c3c(C)cc(C)nc3C)cc12 | 19 | 1.7 | – | 54 | > 100000 | > 100000 | 48 | > 200000 | > 200000 | 100 | 86.7 | 98.1 | IC50 [19]: 51.5 nM; half-life at 2 µM [8]: > 289 min; half-life at 1 µM [9]: 1.1 min; half-life at 3 µM [10]: 2.7 min; logD [11]: 4.41; IC50 [23]: 201 nM; remaining at 24 h [25]: > 80%; Papp B→A at 2 h, 2 µM [13]: 21.8 ×10⁻⁶ cm/s
19 | COc1cccc2[nH]c(C(=O)N[C@@H](CC(C)C)C(=O)N[C@@H](C[C@@H]3CCNC3=O)C(=O)COC(=O)c3c(C(F)(F)F)cc(C)nc3C)cc12 | – | – | – | 33 | > 100000 | 44900 | 13 | > 200000 | > 201000 | – | – | – | half-life at 2 µM [8]: > 289 min; half-life at 1 µM [9]: 1.1 min; half-life at 3 µM [10]: 1.9 min; logD [11]: 4.57; Papp B→A at 2 h, 2 µM [13]: 24.3 ×10⁻⁶ cm/s
20 | CCC(CC)COC(=O)[C@H](C)N[P@](=O)(OC[C@H]1O[C@@](C#N)(c2ccc3c(N)ncnn23)[C@H](O)[C@@H]1O)Oc1ccccc1 | – | – | – | 20 | > 100000 | 10400 | 35 | – | – | – | – | – | selectivity ratio [26]: 518
